# Data published in patent US20160115540A1, “PRODRUGS AND DRUGS” (Biogen MA Inc., priority 2013, published 2016).
# Structures can show the parent of a compound that is named as a salt.
# System: blood, cerebellum, spinal cord
# Test: Transcriptional profiling, chronic dosing, EAE mice: blood, cerebellum, spinal cord
# Assay type: in vivo
# Conditions: for Number of differentially expressed genes identified: Cerebellum / Number of differentially expressed genes identified: Spinal Cord / Number of differentially expressed genes identified: Whole blood: EAE, Chronic Dosing
# Method: 2011 March 134(Pt3): 678-92. […] FIG. 17 depicts exemplary immunophenotyping panels used to analyze various immune cell populations (e.g., T cells, T regulatory cells, NK cells, B cells, myeloid cells). […] Animals were exposed to CO2 and whole blood collected via cardiac puncture. Two 100 μl aliquots of whole blood were collected in 1.5 mL microcentrifuge tubes and snap frozen in liquid nitrogen. Peripheral (liver, spleen, kidney and jejunum) and CNS brain (cerebellum, hippocampus, striatum and cortex) tissues were harvested and snap frozen in liquid nitrogen, with special care taken to collect tissues of similar size and from the same location. All samples were stored at -80° C. until RNA extraction was conducted. For RNA preparation, frozen tissues were placed in 2 mL RNAse-free 96-well blocks with 1.5 mL QIAzol Lysis Reagent (QIAgen) and a 3.2 mm stainless steel bead (BioSpec Products, Bartlesville, Okla.). Tissues were disrupted for four cycles of 45 seconds in a Mini-Beadbeater (Biospec Products). RNA was extracted in chloroform and the aqueous phase was mixed with an equal volume of 70% ethanol. Extracted RNA was applied to RNeasy 96 plates and purified by the spin method according to the manufacturer's protocol (RNeasy 96 Universal Tissue Protocol, QIAgen, Hilden Germany). 50 ul of snap frozen mouse blood was re-suspended in lysis buffer with proteinase K and arrayed into deep-well plates for automated RNA extraction. RNA extractions were completed on […] (Beckman Coulter, Indianapolis, Ind.) using Agencourt RNAdvance Blood kit (Part number A35604) according to the manufacturer's specifications. RNA integrity was assessed using the HT RNA reagent kit (Part number 760410, Caliper Life Sciences, Hopkinton, Mass.) using a LabChip GX (PerkinElmer, Waltham, Mass.). RNA samples with a RQS score of >8.0 were considered high quality for downstream microarray processing. […] Washing and staining of the hybridized arrays were completed as described in the GeneChip Expression analysis technical manual for HT plate arrays using the Genechip® Array Station (Affymetrix, Santa Clara, Calif.) with modifications as described in […] et al. The processed GeneChip® plate arrays were scanned using GeneTitan scanner (Affymetrix, Santa Clara, Calif.). Affymetrix scans were subject to quality control (QC) measures. These tests included a visual inspection of the distribution of raw signal intensities and an assessment of RNA degradation, relative log expression (RLE), and normalized unscaled standard error (NUSE). All sample scans that passed these QC metrics were included in the analysis. […] Nucleic Acids Res 2003; 31:e15; Li C, et al. Genome Biol 2001; 2:[…]0032). […] Stat Appl Genet Mol Biol 2004; 3:Article3). […] Springer Science+Business Media 2005).
# [1] = 100 mpk DMF-vs-90 mpk MMF, 7 h after last dosing
# [2] = 100 mpk DMF-vs-90 mpk MMF, 12 h after last dosing
# [3] = 100 mpk DMF-vs-Vehicle, 7 h after last dosing
# [4] = 100 mpk DMF-vs-Vehicle, 12 h after last dosing
# [5] = spinal cord, 100DMF-vs-90MMF, 7 h
# [6] = spinal cord, 100DMF-vs-90MMF, 12 h
# [7] = spinal cord, 100DMF-vs-Veh, 7 h
# [8] = spinal cord, 100DMF-vs-Veh, 12 h
# [9] = tissue not given, 100DMF-vs-90MMF, 7 h
# [10] = tissue not given, 100DMF-vs-90MMF, 12 h
# [11] = 90 mpk MMF-vs-Vehicle, 7 h after last dosing
# [12] = 90 mpk MMF-vs-Vehicle, 12 h after last dosing
# [13] = spinal cord, 100MMF-vs-Veh, 7 h
# [14] = spinal cord, 100MMF-vs-Veh, 12 h
# [15] = tissue not given, 100MMF-vs-Veh, 12 h
smiles,measurement,setting,value
"COC(=O)/C=C/C(=O)OC [DMF, dimethyl fumarate]",Number of differentially expressed genes identified: Cerebellum,[1],2
same,Number of differentially expressed genes identified: Spinal Cord,[1],2
same,Number of differentially expressed genes identified: Whole blood,[1],0
same,Number of differentially expressed genes identified: Cerebellum,[2],3
same,Number of differentially expressed genes identified: Spinal Cord,[2],40
same,Number of differentially expressed genes identified: Whole blood,[2],0
same,Number of differentially expressed genes identified: Cerebellum,[3],0
same,Number of differentially expressed genes identified: Spinal Cord,[3],3
same,Number of differentially expressed genes identified: Whole blood,[3],8
same,Number of differentially expressed genes identified: Cerebellum,[4],0
same,Number of differentially expressed genes identified: Spinal Cord,[4],3
same,Number of differentially expressed genes identified: Whole blood,[4],8
same,FC 2900055J20Rik (1430675_PM_at),[5],−1.58
same,FC LOC100047123 (1446154_PM_at),[5],−1.56
same,FC 1423020_PM_at (no gene symbol),[6],1.59
same,FC 1440425_PM_at (no gene symbol),[6],1.57
same,FC 1440449_PM_at (no gene symbol),[6],1.61
same,FC 1441606_PM_at (no gene symbol),[6],1.57
same,FC 1442650_PM_at (no gene symbol),[6],1.92
same,FC 1442813_PM_at (no gene symbol),[6],2.21
same,FC 1443212_PM_at (no gene symbol),[6],1.82
same,FC 1443237_PM_at (no gene symbol),[6],1.59
same,FC 1444001_PM_at (no gene symbol),[6],1.58
same,FC 1446481_PM_at (no gene symbol),[6],1.59
same,FC 1447354_PM_at (no gene symbol),[6],1.54
same,FC 1458147_PM_at (no gene symbol),[6],1.60
same,FC 1458697_PM_at (no gene symbol),[6],1.72
same,FC 1459235_PM_at (no gene symbol),[6],1.65
same,FC 1459288_PM_at (no gene symbol),[6],1.66
same,FC 1459310_PM_at (no gene symbol),[6],1.87
same,FC 2410089E03Rik 1443422_PM_at,[6],1.55
same,FC 2410089E03Rik (1458493_PM_a_at),[6],2.00
same,FC 4933439F18Rik (1427068_PM_x_at),[6],1.52
same,FC 6330436F06Rik (1433015_PM_at),[6],1.52
same,FC 9330156P08Rik (1458073_PM_at),[6],2.08
same,FC A230006K03Rik (1432408_PM_a_at),[6],1.59
same,FC A730034C02 /// Mtap2 (1421327_PM_at),[6],1.69
same,FC B230112I24Rik (1433187_PM_at),[6],1.64
same,FC BC066028 (1439850_PM_at),[6],1.56
same,FC Cdk14 (1453956_PM_a_at),[6],1.76
same,FC Dnajc27 (1434946_PM_at),[6],1.85
same,FC Dnm3 (1446265_PM_at),[6],1.54
same,FC Fgf14 (1449958_PM_a_at),[6],1.76
same,FC Flnb (1445534_PM_at),[6],1.55
same,FC Gzma (1417898_PM_a_at),[6],−5.32
same,FC Htr2c (1450477_PM_at),[6],1.65
same,FC Kif22 (1423813_PM_at),[6],−1.68
same,FC Per3 (1442243_PM_at),[6],1.54
same,FC Pole (1448650_PM_a_at),[6],−1.60
same,FC Rgs7bp (1437559_PM_at),[6],1.50
same,FC Sema6d (1446536_PM_at),[6],1.57
same,FC Sgol1 (1418919_PM_at),[6],−1.61
same,FC Slc25a27 (1440090_PM_at),[6],1.56
same,FC Zfp398 (1456639_PM_at),[6],1.57
same,FC Aox1 (1419435_PM_at),[7],1.68
same,FC Rnf128 (1418318_PM_at),[7],1.72
same,FC Rnf128 (1449036_PM_at),[7],1.60
same,FC 1446104_PM_at (no gene symbol),[8],1.57
same,FC Gzma (1417898_PM_a_at),[8],−4.64
same,FC Kif22 (1423813_PM_at),[8],−1.62
same,FC 1459289_PM_at (no gene symbol),[9],1.52
same,FC Nr4a2 (1455034_PM_at),[9],−1.51
same,FC 1444901_PM_at (no gene symbol),[10],−1.68
same,FC Cyp4f16 /// Gm9705 (1430172_PM_a_at),[10],1.54
same,FC Nr4a3 (1438796_PM_at),[10],−1.82
"COC(=O)/C=C/C(=O)O [MMF, monomethyl fumarate]",Number of differentially expressed genes identified: Cerebellum,[11],2
same,Number of differentially expressed genes identified: Spinal Cord,[11],7
same,Number of differentially expressed genes identified: Whole blood,[11],19
same,Number of differentially expressed genes identified: Cerebellum,[12],3
same,Number of differentially expressed genes identified: Spinal Cord,[12],2
same,Number of differentially expressed genes identified: Whole blood,[12],7
same,FC Agxt2l1 (1431406_PM_at),[13],1.78
same,FC Cxcl11 (1419697_PM_at),[13],−3.36
same,FC Ddx58 (1436562_PM_at),[13],−1.67
same,FC Ifi44 (1423555_PM_a_at),[13],−1.99
same,FC Ifit1 (1450783_PM_at),[13],−1.67
same,FC Plac8 (1451335_PM_at),[13],−2.04
same,FC Tor3a (1450454_PM_at),[13],−1.57
same,FC 1439946_PM_at (no gene symbol),[14],−1.62
same,FC Dbp (1418174_PM_at),[14],−1.58
same,FC 1459557_PM_at (no gene symbol),"tissue not given, 100MMF-vs-Veh, 7 h",2.30
same,FC 1442025_PM_a_at (no gene symbol),[15],−1.84
same,FC 1442026_PM_at (no gene symbol),[15],−1.91
same,FC 4933423P22Rik (1454223_PM_at),[15],1.53
